One may read the IC50 as the concentration that inhibits the measured activity by half.

SMILES strings stand for the structures. Where two headings read alike, the source gives them in different places. A value given as a limit tells only on which side of the number the result lay.

The record followed here is patent EP0702683B1, “06-SUBSTITUTED GUANINE DERIVATIVES, A PROCESS FOR THEIR PREPARATION AND THEIR USE IN TREATING TUMOUR CELLS” (Cancer Research Technology Limited, priority 1993, dated 1994).

One data set deals with A375M cells. As to the kind of experiment: Sensitization of A375M cells to BCNU (MTT assay). It counts as cell-based, human. Here is the method:
Sensitization of A375M cells to the cytotoxic effects of BCNU was analysed by MTT assay ^24 differing from the XTT assay described above as follows. […] After 6 days MTT solution (4mg/ml) was added and cells incubated for 3 hours at 37°C. Medium was aspirated and the resulting purple formazan crystals were solubilised in DMSO (120μl) and cell viability was quantified by measuring absorption at 540nm using a microtitre plate reader.

Data set [1] has as its system Raji cells. The data set can be described thus: Sensitization of Raji cells to BCNU (XTT assay). It counts as cell-based, human. The settings on record: BCNU, 2 hour pretreatment. The method, then: (§1) Following a 2 hour incubation at 37°C, medium containing either increasing doses of BCNU, temozolomide or equivalent vehicle was added and the cells allowed to grow for 6 days. At this time XTT solution was added and the cells incubated for a further 4 hours at 37°C. The resulting red/orange formazan reaction product was quantified by measuring absorption at 450nm on a microtitre platereader.
On the technique in general: Formazan colour is commonly taken as a measure of viable cells.

Data set [2] in a line: Stability of inactivators at 37°C (spectrophotometric half life). It counts as physicochemical. Here is the method: Inactivators (10mM in DMSO) were diluted to 0.1mM in prewarmed degassed buffer I (1mM EDTA, 50mM Tris pH 8.3) or PBS (pH 7-7.2). […] Samples were immediately transferred to a CARY13 spectrophotometer (cuvette block held at 37°C) and scanned at an appropriate wavelength (according to the spectral properties of the compound) at 3-10 minute intervals for up to 80 hours. The results were expressed as percentage absorbance change versus time and T1/2 values (half life) extrapolated from this.

Data set [3] is described as follows: Toxicity of inactivator in combination with BCNU in xenograft-bearing mice (survival). It counts as in vivo, nude mice. The settings on record: mouse, in vivo, ip; in combination with BCNU, Figs. 9-13; read-out: death of treated animals. The method, then: 0X6 OPT, England (OLAC mice). […] For this reason lower doses were administered.
Xenograft tumour measurements were taken every 1-2 days by workers using digital calipers. Tumour volume was calculated using the formula (h x w x 1) π/6. The experimental animals were also weighed every 1-2 days. Measurements continued until tumours in the control animals reached the maximum allowable volume (i.e. 1cm x 1cm x 1cm).

Another data set concerns human bone marrow cells. The data set can be described thus: Sensitization of bone marrow cells to temozolomide (GM-CFC assay). It counts as cell-based. The settings on record: three samples tested (BeG: all three; B.4205: two of these), Fig. 14, in words. An excerpt: For the granulocyte/macrophage colony-forming cell (GM-CFC) assay primary human bone marrow samples were obtained from patients undergoing cardiothoracic surgery. […] The colonies represented precursor cells of the granulocyte/macrophage lineage (huGM-CFC). Survival was expressed as a % of the number of colonies at zero dose temozolomide.

The nature of data set [4]: Inactivator toxicity in bone marrow cells (GM-CFC colonies, inactivator alone). It counts as cell-based, human. The settings on record: human, bone marrow gm-cfc, inactivator 10uM, read-out: No. of colonies as % of control (ie no inactivator). The source says: For the granulocyte/macrophage colony-forming cell (GM-CFC) assay primary human bone marrow samples were obtained from patients undergoing cardiothoracic surgery. […] The colonies represented precursor cells of the granulocyte/macrophage lineage (huGM-CFC). […]

In another data set the target is T1, ATase (Rattus norvegicus, UniProt P24528).
T1 construct: endogenous in cells; host or cells: Yoshida
T1 sequence (P24528 1-209): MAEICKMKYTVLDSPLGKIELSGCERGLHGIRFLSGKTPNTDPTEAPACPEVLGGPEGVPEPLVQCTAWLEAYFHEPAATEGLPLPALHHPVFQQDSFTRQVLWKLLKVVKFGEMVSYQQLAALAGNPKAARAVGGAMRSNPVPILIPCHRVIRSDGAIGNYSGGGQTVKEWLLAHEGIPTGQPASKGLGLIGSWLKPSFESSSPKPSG
As to the kind of experiment: Inactivation of ATase activity in Yoshida cells. It counts as cell-based. Here is the method: Mammalian cells were cultured under standard conditions. For example, Raji (a human lymphoblastoid cell line from a Burkitt's lymphoma) cells were grown in suspension culture in RPMI medium supplemented with 10% horse serum. A375M cells are human melanoma cells from which the xenografts described below were established following subcutaneous injection into nude mice: WiDr cells are a human colon carcinoma cell line: Hamster+120 cells are a mitozolomide-selected subline of a Chinese hamster lung fibroblast V79 cell line called RJKO: Yoshida cells are a rat carcinosarcoma cell line and YRbus is a busulphan resistant subline thereof: XP cells are an SV40-transformed fibroblast cell line originally from the skin of a Xeroderma pigmentosum patient, pHMGhAT2b cells are a clone of these cells that have been transfected with a mammalian cell expression vector containing the human ATase cDNA and pHMGla cells are a clone that have been transfected with the expression vector only (i.e. one not containing the human ATase cDNA). Cell pellets were resuspended in cold (4°C) buffer I containing 2 µg/ml leupeptin and sonicated for 10 seconds at 12 µ peak to peak distance. After cooling in ice, the cells were sonicated for a further 10 seconds at 18 µ. Immediately after sonication, 0.01 volumes of 8.7 mg/ml phenylmethanesulphonylfluoride in ethanol was added and the sonicates centrifuged at 15 000 g for 10 minutes at 4°C to pellet cell debris. The supernatant was kept for determination of ATase activity (see below).
Cells were diluted to 10^6/ml in culture medium containing either the appropriate concentration of inactivator or an equivalent volume of vehicle (DMSO). Following incubation at 37°C for 2 hours the cells were harvested by centrifugation, washed twice with PBS and the resulting cell pellets (between 1-2 x 10^7 per pellet) stored at -20°C. ATase activity was determined as described above, in duplicate sonicated cell extracts and expressed as the percentage activity remaining based on that present in the untreated controls (for example 350-450 fm/mg in Raji cells).

The subject of data set [5] is Raji cells. As to the kind of experiment: Sensitization of Raji cells to temozolomide (XTT assay). It counts as cell-based, human. The settings on record: inactivator 0.1 to 5.0µM, Figures 3 and 4, in words. The method, then:
as §1

For the compound `Nc1nc(OCc2ccccc2)c2nc[nH]c2n1` [O^6-benzylguanine, reference compound], the “A375M sensitization (D50.^C/D50.^I) 0.5uM” value in the data set with A375M cells (inactivator 0.5uM 2 hours before) was 3.1. In addition, in the data set on A375M cells (inactivator 1.0uM 2 hours before), the “A375M sensitization (D50.^C/D50.^I) 1.0uM” value is 2.3. Moreover, in the data set with A375M cells (inactivator 5.0uM 2 hours before), the “A375M sensitization (D50.^C/D50.^I) 5.0uM” value is 4.2. Besides, the “Raji sensitization (D90.^C/D90.^I) 0.5µM” value with Raji cells [1] (inactivator 0.5µM) is “*2.0 ± 0.4”. Moreover, the “Raji sensitization (D90.^C/D90.^I) 1.0µM” value with Raji cells [1] (inactivator 1.0µM) is given as “*3.8 ± 1.8”. In the data set with Raji cells [1] (inactivator O.1µM), the “Raji sensitization (D90.^C/D90.^I) O.1µM” value is listed as “*1.9 ± 0.7”. Further, the half-life at 100 µM was above 16 h in data set [2] (0.1mM in PBS (pH 7-7.2), read-out: T1/2(h) in PBS (converted)) and above 64 h in data set [2] (0.1mM in buffer I (1mM EDTA, 50mM Tris pH 8.3), read-out: T1/2(h) in Buffer I (converted)). Moreover, the mortality in data set [3] is at most 70%. Besides, the “sensitization of GM-CFCs in human bone marrow samples to the toxic effects of temozolomide” value in the data set with human bone marrow cells was “sensitised”. In addition, the viability at 216 h, 10 µM in data set [4] (Patient A) came to 95%; in data set [4] (Patient B), 46%; in data set [4] (Patient C), 88%; in data set [4] (Patient D) it was 88%; in data set [4] (Patient E), 89%. Also, inhibition at ATase was half-maximal at 0.14 µM (IC50). Further, the “dose response of sensitization of Raji cells to temozolomide” value in the data set with Raji cells [5] is “clear dose response”.
